Measurements as given in ChEMBL document CHEMBL1201862, “PubChem BioAssay data set” (2004).
Active and inactive are the calls of the source.

Columns and labels:
[1] = target: T1, Apoptotic protease-activating factor 1 (Homo sapiens, UniProt O14727); assay: SAR analysis of small molecule Activators of Apaf-1 in a Fluorescent assay.; format: functional; settings: read-out: EC50_Mean;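 further: caspase-3 cleavage of fluorogenic Rh110 DEVD substrate downstream of apoptosome activation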
T1 sequence (O14727 whole entry): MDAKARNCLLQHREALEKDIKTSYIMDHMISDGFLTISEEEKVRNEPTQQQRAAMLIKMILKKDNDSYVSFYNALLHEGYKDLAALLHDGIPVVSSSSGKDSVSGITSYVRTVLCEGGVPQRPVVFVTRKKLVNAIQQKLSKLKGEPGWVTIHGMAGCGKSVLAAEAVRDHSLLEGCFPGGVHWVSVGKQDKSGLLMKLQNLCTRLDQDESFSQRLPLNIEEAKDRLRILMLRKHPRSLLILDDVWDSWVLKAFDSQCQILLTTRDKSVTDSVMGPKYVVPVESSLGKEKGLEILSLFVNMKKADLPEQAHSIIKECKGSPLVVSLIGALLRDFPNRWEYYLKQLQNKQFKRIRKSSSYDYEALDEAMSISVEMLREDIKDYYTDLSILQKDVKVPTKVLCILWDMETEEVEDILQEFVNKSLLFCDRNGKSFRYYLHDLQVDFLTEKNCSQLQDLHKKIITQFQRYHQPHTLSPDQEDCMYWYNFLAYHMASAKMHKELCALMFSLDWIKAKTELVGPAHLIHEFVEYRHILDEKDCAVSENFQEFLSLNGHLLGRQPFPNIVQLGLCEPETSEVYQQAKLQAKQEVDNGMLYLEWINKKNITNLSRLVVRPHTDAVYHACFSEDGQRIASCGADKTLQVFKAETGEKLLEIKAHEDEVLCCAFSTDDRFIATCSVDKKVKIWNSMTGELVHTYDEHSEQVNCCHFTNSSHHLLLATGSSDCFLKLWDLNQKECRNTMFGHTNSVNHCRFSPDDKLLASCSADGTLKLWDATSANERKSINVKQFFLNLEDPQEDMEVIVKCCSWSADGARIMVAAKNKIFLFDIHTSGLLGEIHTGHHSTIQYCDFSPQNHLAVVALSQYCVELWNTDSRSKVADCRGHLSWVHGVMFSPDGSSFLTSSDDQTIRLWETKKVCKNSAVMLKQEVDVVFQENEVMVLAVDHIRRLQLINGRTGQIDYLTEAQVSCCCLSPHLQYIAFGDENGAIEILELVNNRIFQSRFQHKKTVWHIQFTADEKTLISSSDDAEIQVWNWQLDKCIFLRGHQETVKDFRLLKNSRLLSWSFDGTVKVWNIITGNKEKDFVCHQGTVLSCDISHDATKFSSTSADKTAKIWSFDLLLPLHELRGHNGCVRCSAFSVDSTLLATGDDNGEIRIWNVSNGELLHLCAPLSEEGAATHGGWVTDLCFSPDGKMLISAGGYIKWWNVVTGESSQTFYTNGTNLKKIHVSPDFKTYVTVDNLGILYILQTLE

[2] = Luminescence Cell-Based Dose Retest to Confirm Inhibitors of Cancer Stem Cells. [Related pubchem assays (depositor defined):AID2717, AID2721]; format: functional; settings: Homo sapiens
[3] = target: Hepatocyte nuclear factor 4-alpha (Homo sapiens, UniProt P41235); format: functional, cell-based;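 further: biochemical luminescence-based dose-response counterscreen measuring inhibition of HNF4 dimerization, run alongside a screen for blockers of ABHD5–perilipin-5 interaction; split luciferase complementation of HNF4 fusion proteins in cell lysate measuring dimerization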
[4] = system: Vero; assay: cells; format: functional; settings: Chlorocebus sabaeus
[5] = target: DNA (cytosine-5)-methyltransferase 1 (Homo sapiens, UniProt P26358); assay: inhibition of DNA methylation by DNMT1 – biochemical, fluorescent molecular beacon, confirmation (AID 602386); format: functional
[6] = target: Induced myeloid leukemia cell differentiation protein Mcl-1 (Homo sapiens, UniProt Q07820); assay: blockers of MCL1 binding to BIM peptide – biochemical, fluorescence polarization, BIM-BH3 peptide, 1536-well, dose response (AID 2217)
[7] = target: T2, Small ubiquitin-related modifier 1 (Homo sapiens, UniProt P63165); assay: SUMO1 protein interaction blockers, potency – biochemical, fluorescence polarization, uHTS hits, dose response (AID 624382); format: functional; settings: read-out: IC50_Mean
[8] = target: Bcl-2-like protein 1 (Homo sapiens, UniProt Q07817); assay: blockers of BCLXL peptide binding – biochemical, fluorescence polarization, 1536-well, selectivity assay for MCL1 inhibitor project, dose response (AID 2218)
[9] = target: T2, Small ubiquitin-related modifier 1; assay: SUMO1 protein-protein binding blockers, potency – biochemical, FRET, dose response (AID 624383); format: functional; settings: read-out: IC50_Mean
[10] = target: Nuclear receptor subfamily 5 group A member 2 (Homo sapiens, UniProt O00482); format: functional, cell-based;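 further: HEK293T cells transfected with LRH-1 and a StAR promoter luciferase reporter; potency for inhibitors that lower LRH-1 driven reporter light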
[11] = nonselective StAR promoter luciferase inhibitors – cell-based, luminescence, luciferase reporter, counter-screen for LRH-1 inverse agonist project, dose response (AID 651969); format: functional
[12] = target: Steroidogenic factor 1 (Homo sapiens, UniProt Q13285); assay: Counterscreen for inverse agonists of the liver receptor homolog-1 (LRH-1; NR5A2): Luminescence-based cell-based high throughput dose response assay to identify inverse agonists of the Steroidogenic Factor 1 Nuclear Receptor (SF1; NR5A1).; format: functional
[13] = target: Beta Lactamase (Pseudomonas aeruginosa, UniProt Q932Y6);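 further: confirmatory high-throughput screen measuring VIM-2 metallo-beta-lactamase inhibition by epi-absorbance in dose response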
[14] = target: Beta-lactamase (Salmonella choleraesuis (strain SC-B67), UniProt Q5J463)
[15] = target: Beta-lactamase (Pseudomonas aeruginosa, UniProt Q79MP6);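 further: biochemical dose-response test of metallo-beta-lactamase enzyme inhibition, read out by epi-absorbance; purified recombinant IMP-1 metallo-beta-lactamase with nitrocefin as substrate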
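Wherever AC50 is given: cells exposed to compound for roughly 70 hours or longer before luminescence read.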

T2 sequence (P63165 whole entry): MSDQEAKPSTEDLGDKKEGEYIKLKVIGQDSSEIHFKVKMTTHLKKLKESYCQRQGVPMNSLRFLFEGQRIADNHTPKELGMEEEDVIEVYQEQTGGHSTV
Chain of Hepatocyte nuclear factor 4-alpha (P41235 whole entry, the tested form may be a part): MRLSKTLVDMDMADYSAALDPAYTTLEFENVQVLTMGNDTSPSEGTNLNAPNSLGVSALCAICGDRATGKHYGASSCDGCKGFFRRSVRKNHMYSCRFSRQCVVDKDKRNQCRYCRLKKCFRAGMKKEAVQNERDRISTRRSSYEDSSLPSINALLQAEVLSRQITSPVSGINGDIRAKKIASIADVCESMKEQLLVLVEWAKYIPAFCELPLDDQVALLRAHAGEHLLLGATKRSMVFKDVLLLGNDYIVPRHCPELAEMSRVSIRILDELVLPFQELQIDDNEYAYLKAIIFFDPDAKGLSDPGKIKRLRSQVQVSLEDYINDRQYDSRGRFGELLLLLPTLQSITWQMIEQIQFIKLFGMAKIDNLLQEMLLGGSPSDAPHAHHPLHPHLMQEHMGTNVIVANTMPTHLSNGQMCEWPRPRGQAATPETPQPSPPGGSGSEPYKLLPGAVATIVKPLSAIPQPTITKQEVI
Chain of DNA (cytosine-5)-methyltransferase 1 (P26358 whole entry): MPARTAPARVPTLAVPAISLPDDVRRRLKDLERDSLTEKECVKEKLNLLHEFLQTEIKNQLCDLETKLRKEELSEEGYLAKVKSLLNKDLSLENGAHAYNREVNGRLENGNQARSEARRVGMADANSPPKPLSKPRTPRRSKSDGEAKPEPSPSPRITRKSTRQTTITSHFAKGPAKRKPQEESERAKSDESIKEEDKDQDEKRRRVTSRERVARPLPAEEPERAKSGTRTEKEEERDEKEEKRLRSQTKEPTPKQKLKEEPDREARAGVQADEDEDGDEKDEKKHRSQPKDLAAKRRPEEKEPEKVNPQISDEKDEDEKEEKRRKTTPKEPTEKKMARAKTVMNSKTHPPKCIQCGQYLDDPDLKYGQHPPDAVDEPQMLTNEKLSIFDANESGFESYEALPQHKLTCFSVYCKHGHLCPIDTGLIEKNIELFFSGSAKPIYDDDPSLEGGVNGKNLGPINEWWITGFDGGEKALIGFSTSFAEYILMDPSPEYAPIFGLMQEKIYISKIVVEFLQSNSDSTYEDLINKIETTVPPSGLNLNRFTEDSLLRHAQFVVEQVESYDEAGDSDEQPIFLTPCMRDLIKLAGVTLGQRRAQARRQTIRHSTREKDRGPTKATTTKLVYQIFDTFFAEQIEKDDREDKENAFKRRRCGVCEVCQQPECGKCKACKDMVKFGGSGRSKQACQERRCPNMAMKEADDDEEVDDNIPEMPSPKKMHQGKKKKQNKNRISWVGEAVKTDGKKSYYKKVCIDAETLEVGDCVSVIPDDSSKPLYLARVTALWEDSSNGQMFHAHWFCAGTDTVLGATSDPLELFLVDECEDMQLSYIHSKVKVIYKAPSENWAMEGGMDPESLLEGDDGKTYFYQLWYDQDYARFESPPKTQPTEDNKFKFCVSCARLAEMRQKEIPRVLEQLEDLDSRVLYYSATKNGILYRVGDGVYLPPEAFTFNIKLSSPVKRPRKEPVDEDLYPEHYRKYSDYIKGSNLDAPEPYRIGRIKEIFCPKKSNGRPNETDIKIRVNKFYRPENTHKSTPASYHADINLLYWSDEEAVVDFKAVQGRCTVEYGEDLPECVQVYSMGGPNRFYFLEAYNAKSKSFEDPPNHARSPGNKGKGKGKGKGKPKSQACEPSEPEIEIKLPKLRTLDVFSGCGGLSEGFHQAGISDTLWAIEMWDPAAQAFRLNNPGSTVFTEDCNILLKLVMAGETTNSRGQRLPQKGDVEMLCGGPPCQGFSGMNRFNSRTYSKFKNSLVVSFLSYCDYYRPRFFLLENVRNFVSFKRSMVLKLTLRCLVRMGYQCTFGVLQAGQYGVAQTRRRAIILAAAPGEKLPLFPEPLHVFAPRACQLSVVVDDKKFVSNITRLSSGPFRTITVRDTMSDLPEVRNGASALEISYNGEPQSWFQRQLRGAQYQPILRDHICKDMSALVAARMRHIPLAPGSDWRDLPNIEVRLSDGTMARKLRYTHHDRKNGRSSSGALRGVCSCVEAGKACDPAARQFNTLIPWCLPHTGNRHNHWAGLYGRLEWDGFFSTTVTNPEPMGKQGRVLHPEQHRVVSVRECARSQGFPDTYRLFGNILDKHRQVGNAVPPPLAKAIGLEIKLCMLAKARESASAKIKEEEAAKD
Chain of Steroidogenic factor 1 (Q13285 whole entry): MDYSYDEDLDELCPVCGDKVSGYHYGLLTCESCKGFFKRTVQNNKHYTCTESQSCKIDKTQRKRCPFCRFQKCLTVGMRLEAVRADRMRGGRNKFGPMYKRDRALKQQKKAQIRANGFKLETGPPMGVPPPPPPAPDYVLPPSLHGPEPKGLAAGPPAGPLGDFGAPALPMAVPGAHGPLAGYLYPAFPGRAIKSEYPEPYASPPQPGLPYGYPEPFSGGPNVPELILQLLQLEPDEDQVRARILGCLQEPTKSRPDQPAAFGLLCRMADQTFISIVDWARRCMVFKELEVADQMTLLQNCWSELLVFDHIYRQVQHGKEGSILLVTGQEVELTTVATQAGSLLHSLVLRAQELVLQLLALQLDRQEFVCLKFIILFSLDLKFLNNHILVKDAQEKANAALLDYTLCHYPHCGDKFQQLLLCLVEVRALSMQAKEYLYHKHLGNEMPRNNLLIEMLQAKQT
Chain of Nuclear receptor subfamily 5 group A member 2 (O00482 whole entry): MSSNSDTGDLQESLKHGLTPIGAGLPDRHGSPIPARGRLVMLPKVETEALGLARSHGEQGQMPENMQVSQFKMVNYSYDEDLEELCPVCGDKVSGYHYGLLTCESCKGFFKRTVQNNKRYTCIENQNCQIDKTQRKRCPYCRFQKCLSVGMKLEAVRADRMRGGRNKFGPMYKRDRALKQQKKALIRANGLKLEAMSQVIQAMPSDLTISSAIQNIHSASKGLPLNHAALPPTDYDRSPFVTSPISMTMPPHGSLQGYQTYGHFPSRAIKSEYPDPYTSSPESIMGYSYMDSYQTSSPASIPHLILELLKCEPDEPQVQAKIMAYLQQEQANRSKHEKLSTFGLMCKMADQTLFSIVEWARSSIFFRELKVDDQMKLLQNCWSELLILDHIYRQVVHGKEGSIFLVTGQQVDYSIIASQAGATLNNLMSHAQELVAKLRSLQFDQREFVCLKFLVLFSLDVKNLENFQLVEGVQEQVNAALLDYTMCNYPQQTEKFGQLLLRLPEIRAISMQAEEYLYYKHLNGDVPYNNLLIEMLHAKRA
Chain of Induced myeloid leukemia cell differentiation protein Mcl-1 (Q07820 whole entry): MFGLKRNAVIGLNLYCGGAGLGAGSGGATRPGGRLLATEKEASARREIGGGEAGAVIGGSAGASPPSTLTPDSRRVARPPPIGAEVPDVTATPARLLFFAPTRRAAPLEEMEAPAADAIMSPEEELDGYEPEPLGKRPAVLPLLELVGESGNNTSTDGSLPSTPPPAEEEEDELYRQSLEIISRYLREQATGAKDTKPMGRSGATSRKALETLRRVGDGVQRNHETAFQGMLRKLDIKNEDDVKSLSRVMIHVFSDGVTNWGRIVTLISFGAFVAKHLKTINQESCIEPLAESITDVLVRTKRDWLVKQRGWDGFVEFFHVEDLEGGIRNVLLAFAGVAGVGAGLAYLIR
Chain of Bcl-2-like protein 1 (Q07817 whole entry): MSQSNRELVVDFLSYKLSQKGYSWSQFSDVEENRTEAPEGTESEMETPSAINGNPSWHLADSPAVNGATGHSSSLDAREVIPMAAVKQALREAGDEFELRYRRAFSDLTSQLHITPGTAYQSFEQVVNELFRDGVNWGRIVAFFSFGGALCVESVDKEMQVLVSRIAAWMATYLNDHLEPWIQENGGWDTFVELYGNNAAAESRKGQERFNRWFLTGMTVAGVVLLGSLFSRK
Chain of Beta-lactamase (Pseudomonas aeruginosa, UniProt Q79MP6) (Q79MP6 whole entry): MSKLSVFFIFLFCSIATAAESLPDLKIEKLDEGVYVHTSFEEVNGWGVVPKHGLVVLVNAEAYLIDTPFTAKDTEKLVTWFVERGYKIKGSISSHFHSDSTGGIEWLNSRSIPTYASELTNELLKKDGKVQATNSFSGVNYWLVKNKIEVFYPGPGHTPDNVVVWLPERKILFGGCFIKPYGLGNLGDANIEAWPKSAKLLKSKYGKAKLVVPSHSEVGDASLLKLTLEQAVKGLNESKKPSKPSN
Chain of Beta Lactamase (Q932Y6 whole entry): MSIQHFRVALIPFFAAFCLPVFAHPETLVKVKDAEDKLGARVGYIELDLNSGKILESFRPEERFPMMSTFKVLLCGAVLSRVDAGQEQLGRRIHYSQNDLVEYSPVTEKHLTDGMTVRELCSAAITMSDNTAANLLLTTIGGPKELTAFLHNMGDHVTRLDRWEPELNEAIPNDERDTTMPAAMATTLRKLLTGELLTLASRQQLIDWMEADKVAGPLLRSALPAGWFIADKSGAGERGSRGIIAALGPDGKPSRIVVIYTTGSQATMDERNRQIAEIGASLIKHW
Chain of Beta-lactamase (Salmonella choleraesuis (strain SC-B67), UniProt Q5J463) (Q5J463 whole entry): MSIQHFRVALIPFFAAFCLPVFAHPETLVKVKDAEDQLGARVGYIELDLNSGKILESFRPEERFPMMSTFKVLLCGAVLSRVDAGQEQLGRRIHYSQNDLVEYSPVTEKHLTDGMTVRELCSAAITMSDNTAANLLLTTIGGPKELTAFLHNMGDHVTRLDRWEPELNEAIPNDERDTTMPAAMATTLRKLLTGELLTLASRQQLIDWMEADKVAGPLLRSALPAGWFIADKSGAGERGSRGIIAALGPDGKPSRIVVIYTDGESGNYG

## Cc1nn(Cc2ccccc2)c(C)c1CCC(=O)O
[1]
  EC50: > 100 µM (inactive)

## Cc1ccc(/C=C/C(=O)c2cc(Br)ccc2OC(=O)c2ccco2)cc1
[2]
  AC50: 4.76 µM (active)
[3]
  IC50: 1.96 µM (active)
[4]
  CC50: 24.4 µM (active)

## CCOc1ccc(NC(=O)c2cccc(-n3cccc3)c2)cc1S(=O)(=O)N1CCOCC1
[5]
  IC50: 9.08 µM (active)
[6]
  IC50: > 4.03 µM (active)
[7]
  IC50: > 66.6 µM (inactive)
[8]
  IC50: > 109 µM (not active)
[9]
  IC50: 3.29 µM (active)

## CC1(C(=O)NCc2ccc3c(c2)OCO3)CCN1C(=O)Cc1ccc(Cl)cc1Cl (stereo not given)
[10]
  IC50: 7.36 µM (active)
[11]
  IC50: 35.9 µM (inactive)
[12]
  IC50: 3.32 µM (active)

## C/C(=N\O)c1ccc2c3c([nH]c2c1)CCCC3
[13]
  IC50: > 59.6 µM (inactive)
[14]
  IC50: > 59.6 µM (inactive)
[15]
  IC50: > 59.6 µM (inactive)
